As a reminder, the IC50 is the midpoint of a concentration-inhibition curve.

The structures appear in SMILES notation. Like-named read-outs stand apart in the source and are kept apart here. Bounds are passed on as bounds.

Consider 5 molecules from patent US6448247B1, “Method for treating an inflammatory disease” (Sankyo Company, Limited, priority 1995, dated 2002).

For experiment [1], the target named is T1, NK1 receptors (Cavia porcellus, UniProt P30547).
T1 construct: A crude membrane fraction was prepared from the lung of male Hartley guinea pigs; from tissue; host or cells: guinea pig lung (crude membrane fraction)
T1 sequence (P30547 whole entry): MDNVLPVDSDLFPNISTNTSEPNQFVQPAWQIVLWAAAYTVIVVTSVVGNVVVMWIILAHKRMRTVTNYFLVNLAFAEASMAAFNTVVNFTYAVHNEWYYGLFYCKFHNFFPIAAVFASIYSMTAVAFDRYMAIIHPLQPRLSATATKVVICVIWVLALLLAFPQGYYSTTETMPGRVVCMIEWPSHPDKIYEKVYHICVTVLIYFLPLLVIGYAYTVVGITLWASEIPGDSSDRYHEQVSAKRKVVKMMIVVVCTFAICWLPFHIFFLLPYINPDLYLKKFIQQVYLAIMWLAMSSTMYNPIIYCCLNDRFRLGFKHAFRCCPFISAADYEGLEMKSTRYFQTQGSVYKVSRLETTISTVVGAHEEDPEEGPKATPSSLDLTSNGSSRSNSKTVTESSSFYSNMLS
The experiment is described as follows: NK1 Receptor Binding Test. Also on record: species or system guinea pig. The protocol:
(a) Preparation of Crude Lung Membrane Fraction
A crude membrane fraction was prepared from the lung of male Hartley guinea pigs. The guinea pigs were bled from the cava abdominalis under chloroform anaesthesia and the pulmonary airway tissue was extracted immediately.
The extracted lung was perfused with a buffer (1) (50 mM Tris-HCl, pH 7.4), thinly cut in the buffer, and then homogenised in a buffer (2) [buffer (1) containing 120 mM sodium chloride and 5 mM potassium chloride] using a Polytron homogenizer. The tissue mass was removed from the homogenate by filtration with a nylon mesh (50 μm) and the supernatant was centrifuged (30,000×g, 30 minutes, 4° C.). The resultant pellet was resuspended in an ice-cooled buffer (3) [buffer (1) containing 10 mM EDTA and 300 mM potassium chloride], allowed to stand at 4° C. for 60 minutes and then washed centrifugally twice (30,000×g, 15 minutes, 4° C.).
(§1) The crude membrane fraction was preserved at −80° C. before use.
(§2) (b) Receptor Binding Test
To a mixed solution (250 μl) of the test drug and [^3H]-substance P (final concentration: 1 nM) (50 mM Tris-HCl, pH 7.4; 6 mM manganese chloride, 800 μg/ml BSA, 8 μg/ml chymostatin, 8 μg/ml leupeptin, 80 μg/ml bacitracin, 20 μg/ml phosphoramidon) was added a crude lung membrane fraction solution (250 μl), followed by incubation at room temperature for 30 minutes.
At the end of this time, a lung membrane ingredient was recovered on a GF/B glass fiber filter (manufactured by Whatman Co.) using an automatic filtering device (manufactured by Brandel Co.).
The glass filter was used after being pre-treated with a 0.1% polyethyleneimine solution for about 4 hours so as to inhibit non-specific binding as little as possible. The membrane ingredient-recovered filter was transferred to a mini-plastic vial containing a pico flow (4 ml) and the radioactivity was measured using a liquid scintillation counter (LSC3000, manufactured by Beckman Co.).

The target in experiment [2] is T2, NK2 receptors (Cavia porcellus, UniProt Q64077).
T2 construct: A crude membrane fraction was prepared from the ileum of male Hartley guinea pigs; from tissue; host or cells: guinea pig ileum (crude membrane fraction)
T2 sequence (Q64077 1-402): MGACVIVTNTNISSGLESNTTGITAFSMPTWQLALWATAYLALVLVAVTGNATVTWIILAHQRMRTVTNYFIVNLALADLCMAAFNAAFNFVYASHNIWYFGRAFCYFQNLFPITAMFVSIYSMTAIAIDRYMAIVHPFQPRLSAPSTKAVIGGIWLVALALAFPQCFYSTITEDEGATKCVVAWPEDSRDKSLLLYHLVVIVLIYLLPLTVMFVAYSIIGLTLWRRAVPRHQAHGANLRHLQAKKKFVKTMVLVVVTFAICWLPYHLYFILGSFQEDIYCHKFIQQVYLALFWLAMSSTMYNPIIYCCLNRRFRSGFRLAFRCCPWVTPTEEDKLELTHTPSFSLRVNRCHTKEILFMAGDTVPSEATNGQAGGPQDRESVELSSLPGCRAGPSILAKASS
The experiment can be described thus: NK2 Receptor Binding Test. Also on record: species or system guinea pig. The protocol: (a) Preparation of Crude Ileum Membrane Fraction
A crude membrane fraction was prepared from the ileum of male Hartley guinea pigs. The guinea pigs were bled from the cava abdominalis under chloroform anaesthesia and the ileum was extracted immediately.
After the contents, secreta and epithelium of the lumen had been scraped off using a glass slide, the extracted ileum was thinly cut in a buffer (1) (50 mM Tris-HCl, pH 7.4) and then homogenised in a buffer (2) [buffer (1) containing 120 mM sodium chloride and 5 mM potassium chloride] using a Polytron homogenizer.
The tissue mass was removed from the homogenate by filtration with a nylon mesh (50 μm) and the supernatant was centrifuged (30,000×g, 30 minutes, 4° C.). The resultant pellet was resuspended in an ice-cooled buffer (3) [buffer (1) containing 10 mM EDTA and 30 mM potassium chloride], allowed to stand at 4° C. for 60 minutes and then washed centrifugally twice (30,000×g, 15 minutes, 4° C.).
as §1, §2
To a mixed solution (250 μl) of the test drug and [^3H]-SR-48968 (manufactured by Amasham Co., final concentration: 1 nM) (50 mM Tris-HCl, pH 7.4; 4.6 mM manganese chloride, 800 μg/ml BSA, 8 μg/ml chymostatin, 8 μg/ml leupeptin, 80 μg/ml bacitracin, […] phosphoramidon) was added a crude ileum membrane fraction solution (250 μl), followed by incubation at room temperature for 30 minutes.
At the end of this time, a membrane ingredient was recovered on a GF/B glass fiber filter (manufactured by Whatman Co.) using an automatic filtering device (manufactured by Brandel Co.). The glass filter was used after pre-treatment with a 0.1% polyethyleneimine solution for about 4 hours so as to inhibit non-specific binding as little as possible.
The membrane ingredient-recovered filter was transferred to a mini-plastic vial containing a pico flow (4 ml) and the radioactivity was measured using a liquid scintillation counter (LSC3000, manufactured by Beckman Co.).

Experiment [3] has as its system increased vascular permeability induced by substance P (SP), an NK1 receptor agonist. The experiment can be described thus: Inhibitory Effect on SP-Induced Increased Vascular Permeability. It counts as in vivo, guinea pig. The conditions noted are these: i.v., male Hartley guinea pigs, pigment (Evans blue) leakage into primary bronchus 15 min after SP i.v. The protocol:
The inhibitory effect on increased vascular permeability induced by substance P (SP), an NK1 receptor agonist, was assessed based on the amount of pigment leakage as an index using guinea pigs (body weight: approx. 400 g, male Hartley guinea pigs). Immediately after administering pigment (Evans blue: 20 mg/kg, i.v.) and the test drug in that order into the femoral vein of the guinea pigs under pentobarbital anaesthesia (25 mg/kg, i.p.), increased vascular permeability was induced by administration of SP ([…], i.v.). Fifteen minutes later, the guinea pigs were sacrificed by chloroform anaesthesia and the amount of pigment that leaked into the primary bronchus was measured according to the method of Harada (J. Pharm. Pharmacol., 23, 218, 1971). Inhibitory effect was determined based on the amount of pigment leakage found in guinea pigs not treated with the test drug, and expressed as the percent of inhibition (%) and the dose level that caused inhibition of 50% (ID50).

For experiment [4], the system named is bronchoconstriction induced with [Nle^10]-NKA[4-10], an NK2 receptor agonist. The experiment can be described thus: Inhibitory Effect on NKA-Induced Bronchoconstriction. It counts as in vivo, guinea pig. The conditions noted are these: i.v., male Hartley guinea pigs, airway pressure, test drug 5 min before [Nle^10]-NKA[4-10] i.v. The protocol: The inhibitory effect on bronchoconstriction induced with [Nle^10]-NKA[4-10], an NK2 receptor agonist having higher specificity than neurokinin A (NKA), was assessed based on airway pressure as an index according to the modified method of Konzett-Rössler [Naunyn-Schmiedebergs Arch.Exp.Pathol.Pharmakol., 195, 71, (1940)] using guinea pigs (body weight: approximately 500 g, male Hartley guinea pigs).
After canulating the trachea of the guinea pigs under pentobarbital anaesthesia (30 mg/kg, s.c.) and treatment with gallamine (20 mg/kg, i.v.), the animals were ventilated artificially with a constant volume respiration pump (UgoBasile, 7025) at a frequency of 60 per minute and a tidal volume of 8 ml/kg. Airway pressure during artificial respiration was amplified by means of a pressure transducer (Nihon Koden, TP-200T) installed in a branch of the trachea cannula, detected (Nihon Koden, AP-610G), and recorded with a recorder (Nihon Koden, WT-685G). Following pre-treatment with atropine (1 mg/kg, i.v.) and propranolol (1 mg/kg, i.v.), the test drug was administered intravenously. Five minutes later, bronchoconstriction was induced with [Nle^10]-NKA[4-10] at […], i.v., and then airway pressure was measured for 10 minutes. The inhibitory effect was determined based on the intensity of bronchoconstriction of guinea pigs not treated with the test drug, and expressed as the percent of inhibition (%) and the dose level that caused inhibition of 50% (ID50).

Setting [5] is: [3H]-substance P 1 nM, crude lung membrane fraction of male Hartley guinea pigs, read-out: IC50 (converted).
The mark [6] stands for this setting: [3H]-SR-48968 1 nM, crude ileum membrane fraction of male Hartley guinea pigs, read-out: IC50 (converted).

Take `COc1cc(C(=O)N2CO[C@](CCN3CCC4(CC3)c3ccccc3C[S@+]4[O-])(c3ccc(Cl)c(Cl)c3)C2)cc(OC)c1OC` [Example 75, 1-{2-[(5R)-(3,4-Dichlorophenyl)-3-(3,4,5-trimethoxybenzoyl)oxazolidine-5-yl]ethyl}spiro[benzo[c]thiophene-1(3H),4′-piperidine]-(2S)-oxide]: the values for the IC50 in experiment [1] (setting [5]) and in experiment [2] (setting [6]) were 8.94 nM and 1.29 nM, respectively. Besides, the ID50 was found to be 0.025 mg/kg in experiment [3] and 0.074 mg/kg in experiment [4].
In the case of `COc1cc(C(=O)N2CCOC(CCN3CCC4(CC3)c3ccccc3C[S+]4[O-])(c3ccc(Cl)c(Cl)c3)C2)cc(OC)c1OC` [Example 76, 1-{2-[(2R)-(3,4-Dichlorophenyl)-4-(3,4,5-trimethoxybenzoyl)morpholin-2-yl]ethyl}spiro[benzo[c]thiophene-1(3H),4′-piperidine]-(2S)-oxide], the ID50 in experiment [3] and in experiment [4] was 0.047 mg/kg in each case.
As to `CN(C[C@@H](CCN1CCC2(CCc3ccccc32)CC1)c1ccc(Cl)c(Cl)c1)C(=O)c1ccccc1` [Compound B], the IC50 in experiment [1] is above 1920 nM; in experiment [2], 4.22 nM. The ID50 was above 10 mg/kg in experiment [3] and 0.37 mg/kg in experiment [4].
Consider `Cc1cc(C)cc(C(=O)N(C)C[C@@H](CCN2CCC3(CC2)CN(S(C)(=O)=O)c2ccccc23)c2ccc(Cl)c(Cl)c2)c1` [Compound A], for which the figures for the IC50 in experiment [1] (setting [5]) and in experiment [2] (setting [6]) were 60.4 nM and 28.6 nM, respectively. Moreover, the ID50 in experiment [3] was 5.8 mg/kg; in experiment [4] it was above 10 mg/kg.
For the molecule `COc1cc(C(=O)N2CC[C@](CCN3CCC(C(N)=O)(c4ccccc4)CC3)(c3ccc(Cl)c(Cl)c3)C2)cc(OC)c1OC` [Compound C], the IC50 was 10.1 nM in experiment [1] (setting [5]) and 48.4 nM in experiment [2] (setting [6]). Also, in experiment [2] (comment on Table 5), the “activity in NK2 binding test (in words)” value was “very weak activity”. Besides, the ID50 in experiment [3] amounted to 0.019 mg/kg; in experiment [4], 1.7 mg/kg.
